Experimental data: ChEMBL document CHEMBL3044945, “Synthesis of 1,3,5-trisubstituted pyrazoline nucleus containing compounds and screening for antimicrobial activity” (2012)
In brackets after ≈: the same amount, converted by molar mass.

Columns and labels:
Type in all cases: functional
Escherichia coli [1] = experiment: Antibacterial activity against Escherichia coli MTCC 1573 at 1000 ug/ml after 48 hr by cup-plate method; conditions: MTCC 1573, 48 h, read-out: DIZ
Bacillus pumilus [2] = experiment: Antibacterial activity against Bacillus pumilus MTCC 1456 at 100 ug/ml after 48 hr by cup-plate method; conditions: MTCC 1456, 48 h, read-out: DIZ
Pseudomonas aeruginosa [3] = experiment: Antibacterial activity against Pseudomonas aeruginosa MTCC 424 at 250 ug/ml after 48 hr by cup-plate method; conditions: MTCC 424, 48 h, read-out: DIZ
Pseudomonas aeruginosa [4] = experiment: Antibacterial activity against Pseudomonas aeruginosa MTCC 424 at 1250 ug/ml after 48 hr by cup-plate method; conditions: MTCC 424, 48 h, read-out: DIZ
Escherichia coli [5] = experiment: Antibacterial activity against Escherichia coli MTCC 1573 after 24 to 48 hr by tube dilution method
Pseudomonas fluorescens [6] = experiment: Antibacterial activity against Pseudomonas fluorescens MTCC 2421 at 100 ug/ml after 48 hr by cup-plate method; conditions: MTCC 2421, 48 h, read-out: DIZ
Bacillus subtilis [7] = experiment: Antibacterial activity against Bacillus subtilis MTCC 441 at 750 ug/ml after 48 hr by cup-plate method; conditions: MTCC 441, 48 h, read-out: DIZ
Escherichia coli [8] = experiment: Antibacterial activity against Escherichia coli MTCC 1573 at 100 ug/ml after 48 hr by cup-plate method; conditions: MTCC 1573, 48 h, read-out: DIZ
Pseudomonas aeruginosa [9] = experiment: Antibacterial activity against Pseudomonas aeruginosa MTCC 424 at 100 ug/ml after 48 hr by cup-plate method; conditions: MTCC 424, 48 h, read-out: DIZ
Micrococcus luteus [10] = experiment: Antibacterial activity against Micrococcus luteus MTCC 1538 at 1000 ug/ml after 48 hr by cup-plate method; conditions: MTCC 1538, 48 h, read-out: DIZ
Aspergillus niger [11] = experiment: Antifungal activity against Aspergillus niger MTCC 2546 at 500 ug/ml after 48 hr by cup-plate method; conditions: MTCC 2546, 48 h, read-out: DIZ
Escherichia coli [12] = experiment: Antibacterial activity against Escherichia coli MTCC 1573 at 500 ug/ml after 48 hr by cup-plate method; conditions: MTCC 1573, 48 h, read-out: DIZ
Aspergillus niger [13] = experiment: Antifungal activity against Aspergillus niger MTCC 2546 at 250 ug/ml after 48 hr by cup-plate method; conditions: MTCC 2546, 48 h, read-out: DIZ
Staphylococcus aureus [14] = experiment: Antibacterial activity against Staphylococcus aureus MTCC 1430 after 24 to 48 hr by tube dilution method
Bacillus pumilus [15] = experiment: Antibacterial activity against Bacillus pumilus MTCC 1456 after 24 to 48 hr by tube dilution method
Penicillium chrysogenum [16] = experiment: Antifungal activity against Penicillium chrysogenum MTCC 161 after 24 to 48 hr by tube dilution method
Bacillus subtilis [17] = experiment: Antibacterial activity against Bacillus subtilis MTCC 441 at 500 ug/ml after 48 hr by cup-plate method; conditions: MTCC 441, 48 h, read-out: DIZ
Pseudomonas fluorescens [18] = experiment: Antibacterial activity against Pseudomonas fluorescens MTCC 2421 at 500 ug/ml after 48 hr by cup-plate method; conditions: MTCC 2421, 48 h, read-out: DIZ
Bacillus pumilus [19] = experiment: Antibacterial activity against Bacillus pumilus MTCC 1456 at 500 ug/ml after 48 hr by cup-plate method; conditions: MTCC 1456, 48 h, read-out: DIZ
Aspergillus niger [20] = experiment: Antifungal activity against Aspergillus niger MTCC 2546 at 1000 ug/ml after 48 hr by cup-plate method; conditions: MTCC 2546, 48 h, read-out: DIZ
Micrococcus luteus [21] = experiment: Antibacterial activity against Micrococcus luteus MTCC 1538 at 1250 ug/ml after 48 hr by cup-plate method; conditions: MTCC 1538, 48 h, read-out: DIZ
Staphylococcus aureus [22] = experiment: Antibacterial activity against Staphylococcus aureus MTCC 1430 at 1250 ug/ml after 48 hr by cup-plate method; conditions: MTCC 1430, 48 h, read-out: DIZ
Pseudomonas fluorescens [23] = experiment: Antibacterial activity against Pseudomonas fluorescens MTCC 2421 at 250 ug/ml after 48 hr by cup-plate method; conditions: MTCC 2421, 48 h, read-out: DIZ
Pseudomonas aeruginosa [24] = experiment: Antibacterial activity against Pseudomonas aeruginosa MTCC 424 at 750 ug/ml after 48 hr by cup-plate method; conditions: MTCC 424, 48 h, read-out: DIZ
Bacillus pumilus [25] = experiment: Antibacterial activity against Bacillus pumilus MTCC 1456 at 250 ug/ml after 48 hr by cup-plate method; conditions: MTCC 1456, 48 h, read-out: DIZ
Micrococcus luteus [26] = experiment: Antibacterial activity against Micrococcus luteus MTCC 1538 at 250 ug/ml after 48 hr by cup-plate method; conditions: MTCC 1538, 48 h, read-out: DIZ
Micrococcus luteus [27] = experiment: Antibacterial activity against Micrococcus luteus MTCC 1538 at 500 ug/ml after 48 hr by cup-plate method; conditions: MTCC 1538, 48 h, read-out: DIZ
Escherichia coli [28] = experiment: Antibacterial activity against Escherichia coli MTCC 1573 at 1250 ug/ml after 48 hr by cup-plate method; conditions: MTCC 1573, 48 h, read-out: DIZ
Penicillium chrysogenum [29] = experiment: Antifungal activity against Penicillium chrysogenum MTCC 161 at 1250 ug/ml after 48 hr by cup-plate method; conditions: MTCC 161, 48 h, read-out: DIZ
Pseudomonas fluorescens [30] = experiment: Antibacterial activity against Pseudomonas fluorescens MTCC 2421 at 1000 ug/ml after 48 hr by cup-plate method; conditions: MTCC 2421, 48 h, read-out: DIZ
Staphylococcus aureus [31] = experiment: Antibacterial activity against Staphylococcus aureus MTCC 1430 at 1000 ug/ml after 48 hr by cup-plate method; conditions: MTCC 1430, 48 h, read-out: DIZ
Pseudomonas fluorescens [32] = experiment: Antibacterial activity against Pseudomonas fluorescens MTCC 2421 at 750 ug/ml after 48 hr by cup-plate method; conditions: MTCC 2421, 48 h, read-out: DIZ
Pseudomonas aeruginosa [33] = experiment: Antibacterial activity against Pseudomonas aeruginosa MTCC 424 at 500 ug/ml after 48 hr by cup-plate method; conditions: MTCC 424, 48 h, read-out: DIZ
Staphylococcus aureus [34] = experiment: Antibacterial activity against Staphylococcus aureus MTCC 1430 at 750 ug/ml after 48 hr by cup-plate method; conditions: MTCC 1430, 48 h, read-out: DIZ
Bacillus pumilus [35] = experiment: Antibacterial activity against Bacillus pumilus MTCC 1456 at 1000 ug/ml after 48 hr by cup-plate method; conditions: MTCC 1456, 48 h, read-out: DIZ
Bacillus subtilis [36] = experiment: Antibacterial activity against Bacillus subtilis MTCC 441 at 100 ug/ml after 48 hr by cup-plate method; conditions: MTCC 441, 48 h, read-out: DIZ
Micrococcus luteus [37] = experiment: Antibacterial activity against Micrococcus luteus MTCC 1538 after 24 to 48 hr by tube dilution method
Staphylococcus aureus [38] = experiment: Antibacterial activity against Staphylococcus aureus MTCC 1430 at 500 ug/ml after 48 hr by cup-plate method; conditions: MTCC 1430, 48 h, read-out: DIZ
Bacillus pumilus [39] = experiment: Antibacterial activity against Bacillus pumilus MTCC 1456 at 750 ug/ml after 48 hr by cup-plate method; conditions: MTCC 1456, 48 h, read-out: DIZ
Bacillus subtilis [40] = experiment: Antibacterial activity against Bacillus subtilis MTCC 441 at 1250 ug/ml after 48 hr by cup-plate method; conditions: MTCC 441, 48 h, read-out: DIZ
Penicillium chrysogenum [41] = experiment: Antifungal activity against Penicillium chrysogenum MTCC 161 at 500 ug/ml after 48 hr by cup-plate method; conditions: MTCC 161, 48 h, read-out: DIZ
Bacillus subtilis [42] = experiment: Antibacterial activity against Bacillus subtilis MTCC 441 after 24 to 48 hr by tube dilution method
Penicillium chrysogenum [43] = experiment: Antifungal activity against Penicillium chrysogenum MTCC 161 at 250 ug/ml after 48 hr by cup-plate method; conditions: MTCC 161, 48 h, read-out: DIZ
Aspergillus niger [44] = experiment: Antifungal activity against Aspergillus niger MTCC 2546 after 24 to 48 hr by tube dilution method
Penicillium chrysogenum [45] = experiment: Antifungal activity against Penicillium chrysogenum MTCC 161 at 1000 ug/ml after 48 hr by cup-plate method; conditions: MTCC 161, 48 h, read-out: DIZ

`NC(=S)N1N=C(c2cccc3ccccc23)CC1c1ccc([N+](=O)[O-])cc1` (stereo not given) gave a zone of inhibition at 1000 µg/mL (Escherichia coli [1]) of 16 mm, a zone of inhibition at 100 µg/mL (Bacillus pumilus [2]) of 10 mm and a zone of inhibition at 250 µg/mL (Pseudomonas aeruginosa [3]) of 11 mm. For the same molecule, the zone of inhibition at 1250 µg/mL (Pseudomonas aeruginosa [4]) was 22 mm, the MIC (Escherichia coli [5]) was 50 µg/mL (≈ 133 µM) and the zone of inhibition at 100 µg/mL (Pseudomonas fluorescens [6]) was 8 mm. It also gave a zone of inhibition at 750 µg/mL (Bacillus subtilis [7]) of 16 mm, a zone of inhibition at 100 µg/mL (Escherichia coli [8]) of 8 mm and a zone of inhibition at 100 µg/mL (Pseudomonas aeruginosa [9]) of 10 mm. For the same molecule, the zone of inhibition at 1000 µg/mL (Micrococcus luteus [10]) was 16 mm, the zone of inhibition at 500 µg/mL (Aspergillus niger [11]) was 17 mm and the zone of inhibition at 500 µg/mL (Escherichia coli [12]) was 11 mm. The zone of inhibition at 250 µg/mL (Aspergillus niger [13]) was 11 mm, the MIC (Staphylococcus aureus [14]) was 150 µg/mL (≈ 398 µM) and the MIC (Bacillus pumilus [15]) was 30 µg/mL (≈ 79.7 µM). The MIC (Penicillium chrysogenum [16]) was 30 µg/mL (≈ 79.7 µM), the zone of inhibition at 500 µg/mL (Bacillus subtilis [17]) was 12 mm and the zone of inhibition at 500 µg/mL (Pseudomonas fluorescens [18]) was 18 mm. For the same molecule, the zone of inhibition at 500 µg/mL (Bacillus pumilus [19]) was 16 mm, the zone of inhibition at 1000 µg/mL (Aspergillus niger [20]) was 24 mm and the zone of inhibition at 1250 µg/mL (Micrococcus luteus [21]) was 19 mm. For the same molecule, the zone of inhibition at 1250 µg/mL (Staphylococcus aureus [22]) was 14 mm, the zone of inhibition at 250 µg/mL (Pseudomonas fluorescens [23]) was 10 mm and the zone of inhibition at 750 µg/mL (Pseudomonas aeruginosa [24]) was 16 mm. For the same molecule, the zone of inhibition at 250 µg/mL (Bacillus pumilus [25]) was 11 mm, the zone of inhibition at 250 µg/mL (Micrococcus luteus [26]) was 9 mm and the zone of inhibition at 500 µg/mL (Micrococcus luteus [27]) was 11 mm. For the same molecule, the zone of inhibition at 1250 µg/mL (Escherichia coli [28]) was 18 mm, the zone of inhibition at 1250 µg/mL (Penicillium chrysogenum [29]) was 23 mm and the zone of inhibition at 1000 µg/mL (Pseudomonas fluorescens [30]) was 23 mm. For the same molecule, the zone of inhibition at 1000 µg/mL (Staphylococcus aureus [31]) was 12 mm, the zone of inhibition at 750 µg/mL (Pseudomonas fluorescens [32]) was 22 mm and the zone of inhibition at 500 µg/mL (Pseudomonas aeruginosa [33]) was 12 mm. It also gave a zone of inhibition at 750 µg/mL (Staphylococcus aureus [34]) of 11 mm, a zone of inhibition at 1000 µg/mL (Bacillus pumilus [35]) of 19 mm and a zone of inhibition at 100 µg/mL (Bacillus subtilis [36]) of 9 mm. It also gave an MIC (Micrococcus luteus [37]) of 150 µg/mL (≈ 398 µM), a zone of inhibition at 500 µg/mL (Staphylococcus aureus [38]) of 10 mm and a zone of inhibition at 750 µg/mL (Bacillus pumilus [39]) of 18 mm. For the same molecule, the zone of inhibition at 1250 µg/mL (Bacillus subtilis [40]) was 22 mm, the zone of inhibition at 500 µg/mL (Penicillium chrysogenum [41]) was 16 mm and the MIC (Bacillus subtilis [42]) was 30 µg/mL (≈ 79.7 µM). It also gave a zone of inhibition at 250 µg/mL (Penicillium chrysogenum [43]) of 11 mm, an MIC (Aspergillus niger [44]) of 30 µg/mL (≈ 79.7 µM) and a zone of inhibition at 1000 µg/mL (Penicillium chrysogenum [45]) of 21 mm.
